{
  "source": "paper PMC5290327",
  "about": "“SC83288 is a clinical development candidate for the treatment of severe malaria” (Nature Communications, 2017)",
  "key": {"[1]": {"test": "In vitro metabolism in liver microsomes", "details": "Mouse"}, "CACO 2 cells": {"tested_on": "CACO 2 cells", "test": "Permeability assay", "type": "in vitro ADME", "details": "Supplementary Table 2", "protocol": "The study was conducted by Cyprotex (Macclesfield, United Kingdom). CACO 2 cells (Sigma-Aldrich, catalogue: 86010202) were seeded on Millipore Millicell plates and formed a confluent monolayer over 20 days before the experiment. On day 20, the tested compounds at a final concentration of 10 μM were added to the apical side of the membrane. The transport of the compound across the monolayer was monitored over a 2 h period by liquid chromatography (LC)–MS/MS quantification. The permeability coefficient (Papp) was calculated from the following equation: [drawing 1] , where dQ/dt is the rate of permeation of the drug across the cells, C0 the donor compartment concentration at time zero and A the area of the cell monolayer. C0 was obtained from analysis of the dosing solution at the start of the experiment."}, "P. falciparum strain Dd2": {"tested_on": "P. falciparum strain Dd2", "test": "Growth inhibition assay, asexual blood stages", "type": "cell-based, Plasmodium falciparum"}, "Solubility in water": {"test": "Solubility in water", "details": "for Solubility in H2O: Supplementary Table 2"}, "Plasmodium vinckei": {"tested_on": "Plasmodium vinckei", "test": "Rodent malaria model", "type": "in vivo", "details": "P. vinckei, 30 mg kg-1 i.p. 1x4 days", "description": "The two SC compounds were also active in the Plasmodium vinckei rodent malaria model system."}, "[2]": {"test": "In vitro metabolism in liver microsomes", "details": "Monkey"}, "[3]": {"test": "In vitro metabolism in liver microsomes", "details": "Dog"}, "[4]": {"test": "In vitro metabolism in liver microsomes", "details": "Human"}, "[5]": {"test": "In vitro metabolism in liver microsomes", "details": "Rat"}, "[6]": {"details": "Supplementary Table 2, read-out: In vitro IC50"}},
  "note": "Like-named read-outs stand apart in the source and are kept apart here.",
  "data": [
    {"smiles": "C=CNC(=N)c1cccc(NC(=O)Nc2ccc(S(=O)(=O)NCc3ccc(S(N)(=O)=O)cc3)cc2)c1", "note": "[SC81458 M30]", "values": [
      {"measurement": "Share of metabolite from the total combined metabolite peak area", "setting": "[1]; SC81458 metabolites", "result": 1.8, "unit": "%"}
    ]},
    {"smiles": "CCCN1CCN(C(=N)c2cccc(NC(=O)Nc3ccc(S(=O)(=O)NCc4ccc(S(N)(=O)=O)cc4)cc3)c2)CC1", "note": "[SC82367]", "values": [
      {"measurement": "Papp", "setting": "CACO 2 cells", "result": "5.40 10-6 cm s-1"},
      {"measurement": "IC50", "setting": "P. falciparum strain Dd2; [6]", "result": 0.007, "unit": "µM"},
      {"measurement": "Solubility in H2O", "setting": "Solubility in water", "result": "> 1000", "unit": "µg/mL"}
    ]},
    {"smiles": "CC(C)N1CCN(C(=N)c2cccc(NC(=O)Nc3ccc(S(=O)(=O)NCc4ccc(S(N)(=O)=O)cc4)cc3)c2)CC1", "note": "[SC82486]", "values": [
      {"measurement": "Papp", "setting": "CACO 2 cells", "result": "2.50 10-6 cm s-1"},
      {"measurement": "IC50", "setting": "P. falciparum strain Dd2; [6]", "result": 0.038, "unit": "µM"},
      {"measurement": "Solubility in H2O", "setting": "Solubility in water", "result": 100, "unit": "µg/mL"}
    ]},
    {"smiles": "N=C(c1cccc(NC(=O)Nc2ccc(S(=O)(=O)NCc3ccc(S(N)(=O)=O)cc3)cc2)c1)N1CCN(Cc2ccncc2)CC1", "note": "[SC82687]", "values": [
      {"measurement": "IC50", "setting": "P. falciparum strain Dd2; [6]", "result": 0.995, "unit": "µM"},
      {"measurement": "Solubility in H2O", "setting": "Solubility in water", "result": 32, "unit": "µg/mL"}
    ]},
    {"smiles": "CCCCCN1CCN(C(=N)c2cccc(NC(=O)Nc3ccc(S(=O)(=O)NCc4ccc(S(N)(=O)=O)cc4)cc3)c2)CC1", "note": "[SC82833]", "values": [
      {"measurement": "IC50", "setting": "P. falciparum strain Dd2; [6]", "result": 0.013, "unit": "µM"},
      {"measurement": "Solubility in H2O", "setting": "Solubility in water", "result": 100, "unit": "µg/mL"}
    ]},
    {"smiles": "CCN(CC)CCN(C)C(=N)c1cccc(NC(=O)Nc2ccc(S(=O)(=O)NCc3ccc(S(N)(=O)=O)cc3)cc2)c1", "note": "[SC82869]", "values": [
      {"measurement": "IC50", "setting": "P. falciparum strain Dd2; [6]", "result": 0.089, "unit": "µM"},
      {"measurement": "Solubility in H2O", "setting": "Solubility in water", "result": 320, "unit": "µg/mL"}
    ]},
    {"smiles": "N=C(c1cccc(NC(=O)Nc2ccc(S(=O)(=O)NCc3ccc(S(N)(=O)=O)cc3)cc2)c1)N1CCNCC1", "note": "[SC82904]", "values": [
      {"measurement": "IC50", "setting": "P. falciparum strain Dd2; Supplementary Table 8, read-out: In vitro IC50", "result": 0.099, "unit": "µM"},
      {"measurement": "Outcome", "setting": "Plasmodium vinckei", "result": "no complete clearance"},
      {"measurement": "Outcome: decrease of parasitemia", "setting": "Plasmodium vinckei", "result": "> 80", "unit": "%"}
    ]},
    {"smiles": "CC(=O)N1CCN(C(=N)c2cccc(NC(=O)Nc3ccc(S(=O)(=O)NCc4ccc(S(N)(=O)=O)cc4)cc3)c2)CC1", "note": "[SC83287]", "values": [
      {"measurement": "IC50", "setting": "P. falciparum strain Dd2; [6]", "result": 5, "unit": "µM"},
      {"measurement": "Solubility in H2O", "setting": "Solubility in water", "result": 10, "unit": "µg/mL"}
    ]},
    {"smiles": "N=C(c1cccc(NC(=O)Nc2ccc(S(=O)(=O)NCc3ccc(S(N)(=O)=O)cc3)cc2)c1)N1CCN(C=O)CC1", "note": "[SC83288 M8]", "values": [
      {"measurement": "Share of metabolite from the total combined metabolite peak area", "setting": "[2]; SC83288 metabolites", "result": 0.2, "unit": "%"},
      {"measurement": "Share of metabolite from the total combined metabolite peak area", "setting": "[3]; SC83288 metabolites", "result": 0.5, "unit": "%"},
      {"measurement": "Share of metabolite from the total combined metabolite peak area", "setting": "[4]; SC83288 metabolites", "result": 0.1, "unit": "%"},
      {"measurement": "Share of metabolite from the total combined metabolite peak area", "setting": "[5]; SC83288 metabolites", "result": 0.6, "unit": "%"},
      {"measurement": "Share of metabolite from the total combined metabolite peak area", "setting": "[1]; SC83288 metabolites", "result": 0.9, "unit": "%"}
    ]},
    {"smiles": "COC(=O)N1CCN(C(=N)c2cccc(NC(=O)Nc3ccc(S(N)(=O)=O)cc3)c2)CC1", "note": "[SC83288 M9]", "values": [
      {"measurement": "Share of metabolite from the total combined metabolite peak area", "setting": "[2]; SC83288 metabolites", "result": 72.3, "unit": "%"},
      {"measurement": "Share of metabolite from the total combined metabolite peak area", "setting": "[3]; SC83288 metabolites", "result": 4.8, "unit": "%"},
      {"measurement": "Share of metabolite from the total combined metabolite peak area", "setting": "[4]; SC83288 metabolites", "result": 82, "unit": "%"},
      {"measurement": "Share of metabolite from the total combined metabolite peak area", "setting": "[5]; SC83288 metabolites", "result": 69, "unit": "%"},
      {"measurement": "Share of metabolite from the total combined metabolite peak area", "setting": "[1]; SC83288 metabolites", "result": 69.9, "unit": "%"}
    ]},
    {"smiles": "CCC(=O)N1CCN(C(=N)c2cccc(NC(=O)Nc3ccc(S(=O)(=O)NCc4ccc(S(N)(=O)=O)cc4)cc3)c2)CC1", "note": "[SC83289]", "values": [
      {"measurement": "Papp", "setting": "CACO 2 cells", "result": "1.70 10-6 cm s-1"},
      {"measurement": "IC50", "setting": "P. falciparum strain Dd2; [6]", "result": 1.82, "unit": "µM"},
      {"measurement": "Solubility in H2O", "setting": "Solubility in water", "result": 32, "unit": "µg/mL"}
    ]},
    {"smiles": "CCCCC(=O)N1CCN(C(=N)c2cccc(NC(=O)Nc3ccc(S(=O)(=O)NCc4ccc(S(N)(=O)=O)cc4)cc3)c2)CC1", "note": "[SC83290]", "values": [
      {"measurement": "IC50", "setting": "P. falciparum strain Dd2; [6]", "result": 0.04, "unit": "µM"},
      {"measurement": "Outcome", "setting": "Plasmodium vinckei", "result": "no complete clearance"},
      {"measurement": "Outcome: decrease of parasitemia", "setting": "Plasmodium vinckei", "result": "> 90", "unit": "%"},
      {"measurement": "Solubility in H2O", "setting": "Solubility in water", "result": "> 1000", "unit": "µg/mL"}
    ]},
    {"smiles": "N=C(c1cccc(NC(=O)Nc2ccc(S(=O)(=O)NCc3ccc(S(N)(=O)=O)cc3)cc2)c1)N1CCOCC1", "note": "[SC87507]", "values": [
      {"measurement": "Papp", "setting": "CACO 2 cells", "result": "1.23 10-6 cm s-1"},
      {"measurement": "IC50", "setting": "P. falciparum strain Dd2; [6]", "result": 0.139, "unit": "µM"}
    ]},
    {"smiles": "N=C(N)c1cccc(NC(=O)Nc2cccc(C(=N)N)c2)c1", "note": "[amicarbalide, reference compound]", "values": [
      {"measurement": "IC50", "setting": "P. falciparum strain Dd2; Plasmodium falciparum, DD2, read-out: In vitro IC50, Supplementary Table 2", "result": 0.01, "unit": "µM"},
      {"measurement": "solubility", "setting": "Solubility in water; water", "result": 100, "unit": "µg/mL"}
    ]},
    {"smiles": "N=C(c1cccc(NC(=O)Nc2ccc(S(N)(=O)=O)cc2)c1)N1CCNCC1", "note": "[metabolite 2]", "values": [
      {"measurement": "Share of metabolite from the total combined metabolite peak area", "setting": "[2]; SC81458 metabolites", "result": 7.6, "unit": "%"},
      {"measurement": "Share of metabolite from the total combined metabolite peak area", "setting": "[2]; SC83288 metabolites", "result": 5.4, "unit": "%"},
      {"measurement": "Share of metabolite from the total combined metabolite peak area", "setting": "[3]; SC81458 metabolites", "result": 1.6, "unit": "%"},
      {"measurement": "IC50", "setting": "P. falciparum strain Dd2; major metabolite, read-out: IC50, antiplasmodial activity in vitro", "result": 5, "unit": "µM"},
      {"measurement": "Share of metabolite from the total combined metabolite peak area", "setting": "[4]; SC81458 metabolites", "result": 4.7, "unit": "%"},
      {"measurement": "Share of metabolite from the total combined metabolite peak area", "setting": "[4]; SC83288 metabolites", "result": 0.3, "unit": "%"},
      {"measurement": "Share of metabolite from the total combined metabolite peak area", "setting": "[5]; SC81458 metabolites", "result": 0.3, "unit": "%"},
      {"measurement": "Share of metabolite from the total combined metabolite peak area", "setting": "[5]; SC83288 metabolites", "result": 0.3, "unit": "%"}
    ]}
  ]
}
